The target in this test is T1, cynomolgus BK1-receptor (Macaca fascicularis, UniProt Q3BCU0).
T1 construct: expressed in transfected cells; host or cells: CHO cells (homogenate)
T1 sequence (Q3BCU0 1-352): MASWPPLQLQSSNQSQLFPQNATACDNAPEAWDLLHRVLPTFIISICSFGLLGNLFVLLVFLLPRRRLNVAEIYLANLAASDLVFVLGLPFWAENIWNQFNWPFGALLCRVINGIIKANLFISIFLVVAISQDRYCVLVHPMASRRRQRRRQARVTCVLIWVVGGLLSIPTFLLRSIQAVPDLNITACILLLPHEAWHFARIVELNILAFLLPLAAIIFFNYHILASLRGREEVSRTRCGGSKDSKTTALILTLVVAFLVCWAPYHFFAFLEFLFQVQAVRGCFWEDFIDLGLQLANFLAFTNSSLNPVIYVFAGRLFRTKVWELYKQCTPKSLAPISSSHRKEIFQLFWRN
Kind of test: cynoBK1-receptor binding assay. The note with it: CHO cells expressing cynomolgus BK1-receptor, radioligand kallidine (DesArg10,Leu9); for inhibition at 10 µM: at 10 μgmol/L. In a few lines:
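Ki derived by non-linear fitting of concentration-binding curves. Test compound competed against 0.5 to 5.0 nM tritiated kallidine (DesArg10,Leu9) on cynomolgus BK1-CHO cell homogenate (50 to 250 μg protein/assay) for 60-180 minutes at ambient temperature, then filtered. 1.0 μM kallidine (DesArg10) set non-specific binding.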

Structures are written as SMILES. A value given as a limit tells only on which side of the number the result lay.

A word on the Ki: it is the dissociation constant of the complex between target and ligand, obtained from inhibition or displacement. Read a high Ki as lower affinity. As a reminder, the inhibition is the relative decrease from the control value, in per cent.

With `N#Cc1ccccc1Nc1ccc(CNC(=O)C2(NC(=O)c3cncnc3)CC2)cc1` [(35)], the affinity corresponds to a Ki of 70 nM and the inhibition at 10 µM stood at 111%.
As to `O=C(N[C@@]1(C(=O)NCc2ccc(Nc3ccccc3C(F)(F)F)cc2)CCOC1)c1ccc(F)nc1` [(107)], the inhibition at 10 µM came out at 95%.
Compound `CC(=O)Nc1cncc(C(=O)NC2(C(=O)NCc3ccc(Nc4ccc(F)cc4C(F)(F)F)cn3)CC2)c1` [(249)] gave an inhibitory constant (Ki) of 518 nM.
As for `CC(NC(=O)C1(NC(=O)c2cncnc2)CC1)c1ccc(Nc2ccc(F)cc2C(F)(F)F)cn1` (stereo not drawn) [(45)], the inhibitory constant (Ki) was 2 nM and the inhibition at 10 µM worked out at 104%.
For `COc1cncc(C(=O)N[C@@]2(C(=O)NCc3ccc(Nc4ccccc4C(F)(F)F)cc3)CCOC2)c1` [(92)], in that order: 62 nM and 110%.
As to `O=C(N[C@@]1(C(=O)NCc2ccc(Nc3ccccc3C(F)(F)F)cc2)CCOC1)c1ccncc1` [(95)], the inhibition at 10 µM came to 86%.
For `O=C(N[C@@]1(C(=O)NCc2ccc(Nc3ccccc3C(F)(F)F)cc2)CCOC1)c1ccnc(O)c1` [(86)], the affinity corresponds to a Ki of 100 nM and the inhibition at 10 µM was 108%.
For `Nc1cncc(C(=O)N[C@@]2(C(=O)NCc3ccc(Nc4ccccc4C(F)(F)F)cc3)CCOC2)c1` [(105)], in that order: 20 nM and 113%.
With `O=C(NC1(C(=O)NCc2ccc(Nc3ccc(Br)cc3C(F)(F)F)cn2)CC1)c1ccc(O)nc1` [(234)], the Ki came to 105 nM.
`Cc1ncc(C(=O)NC2(C(=O)NCc3ccc(Nc4ccc(F)cc4C(F)(F)F)cn3)CC2)cn1` [(232)] displayed a Ki of 5.6 nM.
Still for that read-out and setting: the value for `O=C(NC1(C(=O)NCc2ccc(Nc3ccc(F)cc3C(F)(F)F)cn2)CC1)c1cnc2cc[nH]c2c1` [(255)] was 15 nM.
As to `Cn1cc(C(=O)N[C@@]2(C(=O)NCc3ccc(Nc4ccccc4C(F)(F)F)cc3)CCOC2)nn1` [(88)], the inhibition at 10 µM is 80%.
Turning to `N#Cc1c(F)cccc1Nc1ccc(CNC(=O)C2(NC(=O)c3cncnc3)CC2)cc1` [(115)], the inhibition constant Ki is > 500 nM and the inhibition at 10 µM came out at 99%.
In the case of `CN(C)c1ccc(C(=O)NC2(C(=O)NCc3ccc(Nc4ccc(Br)cc4C(F)(F)F)cn3)CC2)cn1` [(268)], the affinity, expressed as Ki, was 281 nM.
For the compound `O=C(CC1CC1)NC1(C(=O)NCc2ccc(Nc3ccccc3C(F)(F)F)cc2)CC1` [(19)], the inhibition at 10 µM was determined as 96%.
Turning to `Nc1cncc(C(=O)NC2(C(=O)NCc3ccc(Nc4ccc(F)cc4C(F)(F)F)cn3)CC2)n1` [(144)], the affinity, expressed as Ki, was 126 nM and the inhibition at 10 µM stood at 97%.
Compound `COc1ccc(C(=O)NC2(C(=O)NCc3ccc(Nc4ccc(Cl)cc4C(F)(F)F)cn3)CC2)cn1` [(240)] displayed an inhibition constant Ki of 506 nM.
On the same count and under the same terms, the value for `O=C(N[C@@]1(C(=O)NCc2ccc(Nc3ccc(F)cc3C(F)(F)F)cc2)CCOC1)c1cnc2cc[nH]c2c1` [(365)] was 376 nM.
With `O=C(N[C@@]1(C(=O)NCc2ccc(Nc3ccccc3C(F)(F)F)cc2)CCOC1)c1cc(O)cc(O)c1` [(102)], affinity was put at a Ki of 87 nM and the inhibition at 10 µM came to 105%.
The compound `Cc1cncc(C(=O)N[C@@]2(C(=O)NCc3ccc(Nc4ccc(F)cc4C(F)(F)F)cc3)CCOC2)c1` [(308)] returned an inhibitory constant (Ki) of 427 nM.
With `Cc1cc(Br)ccc1Nc1ccc(CNC(=O)C2(NC(=O)c3cncnc3)CC2)nc1` [(53)], the Ki was determined as 197 nM and the inhibition at 10 µM is 101%.
For `CN(c1ccc(CNC(=O)C2(NC(=O)c3cncnc3)CC2)cc1)c1ccccc1Cl` [(110)], the inhibition at 10 µM was found to be 33%.
On to `Cc1ncc(C(=O)N[C@@]2(C(=O)NCc3ncc(Nc4ccc(F)cc4C(F)(F)F)cc3C)CCOC2)cn1` [(387)], for which the inhibition constant Ki turned out to be 10 nM.
The same measure, in the same setting: the value for `O=C(N[C@@]1(C(=O)NCc2ccc(Nc3ccc(F)cc3C(F)(F)F)cc2)CCOC1)c1cncnc1` [(287)] was 11 nM; that for `Cc1ncc(C(=O)NC2(C(=O)NCc3ncc(Nc4ccccc4C(F)(F)F)cc3Cl)CC2)cn1` [(301)] was 1.1 nM; that for `CNc1ncc(C(=O)N[C@@]2(C(=O)NCc3ncc(Nc4c(F)cccc4C(F)(F)F)cc3Cl)CCOC2)cn1` [(241)] was 68 nM.
For the compound `CC(NC(=O)[C@]1(NC(=O)c2cncnc2)CCOC1)c1ccc(Nc2ccc(Br)cc2C(F)(F)F)cn1` (stereo partly drawn) [(188)], the Ki was found to be 43 nM and the inhibition at 10 µM amounted to 92%.
Take `O=C(NC1(C(=O)NCc2ccc(Nc3ccc(Cl)cc3C(F)(F)F)cn2)CC1)c1ccno1` [(369)]: the Ki stood at 37 nM.
`O=C(NC1(C(=O)NCc2ccc(Nc3ccc(Cl)cc3C(F)(F)F)cn2)CC1)c1ccc2[nH]cnc2c1` [(266)] displayed a Ki of 78 nM.
With `O=C(NC1(C(=O)NCc2ccc(Nc3ccc(Cl)cc3C(F)(F)F)cn2)CC1)c1cncnc1` [(55)], the Ki is 3.3 nM and the inhibition at 10 µM was 108%.
Compound `CC(=O)Nc1ncc(C(=O)NC2(C(=O)NCc3ccc(Nc4ccc(F)cc4C(F)(F)F)cn3)CC2)s1` [(257)] gave a Ki of 17 nM.
In the case of `CN(C)CCC(=O)NC1(C(=O)NCc2ccc(Nc3ccccc3C(F)(F)F)cc2)CC1` [(8)], the inhibition at 10 µM came out at 75%.
Regarding `COc1ncc(C(=O)NC2(C(=O)NCc3ccc(Nc4ccc(Br)cc4C(F)(F)F)cn3)CC2)cn1` [(138)], the affinity, expressed as Ki, was 6.7 nM and the inhibition at 10 µM amounted to 107%.
Compound `CNc1ncc(C(=O)N[C@@]2(C(=O)NCc3ccc(Nc4ccc(F)cc4C(F)(F)F)cc3)CCOC2)cn1` [(289)] returned a Ki of 21 nM.
On to `N#Cc1ccc(Nc2ccc(CNC(=O)C3(NC(=O)c4cncnc4)CC3)nc2)c(C(F)(F)F)c1` [(197)], for which the Ki was > 500 nM and the inhibition at 10 µM came to 81%.
For `O=C(NC1(C(=O)NCc2ccc(Nc3ccc(OCC(F)F)cc3C(F)(F)F)cc2)CC1)c1cncnc1` [(118)], in that order: 64 nM and 109%.
`O=C(NC1(C(=O)NCc2ccc(Nc3cc(F)ccc3C(F)(F)F)cn2)CC1)c1cncnc1` [(42)]: the inhibition at 10 µM stood at 89%.
`Cc1cc(Nc2ccccc2C(F)(F)F)cnc1CNC(=O)[C@]1(NC(=O)c2cncc(N)c2)CCOC1` [(359)]: affinity was put at a Ki of 125 nM.
Consider `O=C(N[C@@]1(C(=O)NCc2ccc(Nc3c(F)cccc3C(F)(F)F)cn2)CCOC1)c1cncnc1` [(46)], for which the Ki was determined as 290 nM and the inhibition at 10 µM stood at 88%.
In the case of `O=C(NC1(C(=O)NCc2ccc(Nc3ccc(Cl)cc3C(F)(F)F)cn2)CC1)c1ccnc(O)c1` [(207)], the Ki worked out at 84 nM.
For the compound `Cn1ccc(C(=O)NC2(C(=O)NCc3ccc(Nc4ccc(Br)cc4C(F)(F)F)cn3)CC2)cc1=O` [(177)], the inhibition at 10 µM was determined as 99%.
`N#Cc1cc(Cl)ccc1Nc1ccc(CNC(=O)C2(NC(=O)c3cncnc3)CC2)cc1` [(162)]: the affinity, expressed as Ki, was 17 nM and the inhibition at 10 µM stood at 104%.
On to `O=C1CCC(C(=O)N[C@@]2(C(=O)NCc3ccc(Nc4ccccc4C(F)(F)F)cc3)CCOC2)CN1` (stereo partly drawn) [(76)], for which the inhibition at 10 µM came out at 80%.
In turn, `CNc1cncc(C(=O)NC2(C(=O)NCc3ccc(Nc4ccc(Cl)cc4C(F)(F)F)cn3)CC2)c1` [(280)] came in with a Ki of 25 nM.
The same measure, in the same setting: to `COc1ncc(C(=O)N[C@@]2(C(=O)NCc3ccc(Nc4ccc(Cl)cc4C(F)(F)F)cc3)CCOC2)cn1` [(333)] belongs 89 nM.
As for `O=C(NC1(C(=O)NCc2ccc(Nc3ccccc3C(F)(F)F)cn2)CCCCC1)c1cncnc1` [(191)], the inhibition at 10 µM was 56%.
The same measure, in the same setting: to `O=C(N[C@@]1(C(=O)NCc2ccc(Nc3ccccc3C(F)(F)F)cc2)CCOC1)c1ccc(=O)[nH]n1` [(62)] belongs 60%.
Take `CC(NC(=O)C1(NC(=O)c2cncnc2)CC1)c1ncc(Nc2c(F)cccc2C(F)(F)F)cc1F` (stereo not drawn) [(121)]: the affinity corresponds to a Ki of 2 nM and the inhibition at 10 µM was found to be 113%.
For `CCNC(=O)NC1(C(=O)NCc2ccc(Nc3ccccc3C(F)(F)F)cc2)CC1` [(108)], in that order: 135 nM and 101%.
For the compound `O=C(NC1(C(=O)NCc2ccc(Nc3ccc(Br)cc3C(F)(F)F)cn2)CC1)c1ccnc(O)c1` [(171)], the inhibition at 10 µM was found to be 97%.
Compound `Nc1cc(C(=O)NC2(C(=O)NCc3ccc(Nc4ccc(F)cc4C(F)(F)F)cn3)CC2)cnn1` [(262)] registered a Ki of 37 nM.
As for `O=C(NC1(C(=O)NCc2ncc(Nc3ccc(Br)cc3C(F)(F)F)cc2F)CC1)c1cncnc1` [(179)], the inhibition at 10 µM worked out at 101%.
The same measure, in the same setting: the value for `O=C1CCCC(C(=O)N[C@@]2(C(=O)NCc3ccc(Nc4ccccc4C(F)(F)F)cc3)CCOC2)C1` (stereo partly drawn) [(69)] was 42%.
On to `O=C(N[C@@]1(C(=O)NCc2ccc(Nc3ccc(F)cc3C(F)(F)F)cn2)CCOC1)c1cncnc1` [(43)], for which the Ki came out at 36 nM and the inhibition at 10 µM turned out to be 94%.
In turn, `CNc1cncc(C(=O)N[C@@]2(C(=O)NCc3ncc(Nc4ccc(F)cc4C(F)(F)F)cc3Cl)CCOC2)c1` [(269)] showed a Ki of 47 nM.
As to `O=C(NC1(C(=O)NCc2ncc(Nc3c(F)cccc3C(F)(F)F)cc2F)CC1)c1cncnc1` [(120)], the Ki was 2.4 nM and the inhibition at 10 µM worked out at 113%.
Take `Nc1ccc(C(=O)N[C@@]2(C(=O)NCc3ncc(Nc4ccc(Cl)cc4C(F)(F)F)cc3F)CCOC2)cn1` [(293)]: the affinity, expressed as Ki, was 65 nM.
The same measure, in the same setting: the value for `Cc1ncc(C(=O)N[C@@]2(C(=O)NCc3ccc(Nc4ccc(F)cc4C(F)(F)F)cc3F)CCOC2)cn1` [(274)] was 4 nM.

The record behind these values is patent US20130131075A1, “NEW COMPOUNDS” (Boehringer Ingelheim International GmbH, priority 2009, published 2013).
